Results from ChEMBL document CHEMBL5233266, “β-Carboline as a Privileged Scaffold for Multitarget Strategies in Alzheimer's Disease Therapy” (J Med Chem, 2021).

Columns and labels:
[1] = target: cGMP-specific 3',5'-cyclic phosphodiesterase (Homo sapiens, UniProt O76074); assay: Binding affinity to PDE5 (unknown origin) assessed as inhibition constant
Acetylcholinesterase [2] = target: T1, Acetylcholinesterase (Homo sapiens, UniProt P22303); assay: Inhibition of AChE (unknown origin) by Ellman's method
Acetylcholinesterase [3] = target: T1, Acetylcholinesterase; assay: Inhibition of AChE (unknown origin) incubated for 40 mins by Ellman's method
[4] = target: T2, 5-hydroxytryptamine receptor 2C (Homo sapiens, UniProt P28335); assay: Binding affinity to 5-HT2C (unknown origin) assessed as inhibition constant
T2 sequence (P28335 whole entry): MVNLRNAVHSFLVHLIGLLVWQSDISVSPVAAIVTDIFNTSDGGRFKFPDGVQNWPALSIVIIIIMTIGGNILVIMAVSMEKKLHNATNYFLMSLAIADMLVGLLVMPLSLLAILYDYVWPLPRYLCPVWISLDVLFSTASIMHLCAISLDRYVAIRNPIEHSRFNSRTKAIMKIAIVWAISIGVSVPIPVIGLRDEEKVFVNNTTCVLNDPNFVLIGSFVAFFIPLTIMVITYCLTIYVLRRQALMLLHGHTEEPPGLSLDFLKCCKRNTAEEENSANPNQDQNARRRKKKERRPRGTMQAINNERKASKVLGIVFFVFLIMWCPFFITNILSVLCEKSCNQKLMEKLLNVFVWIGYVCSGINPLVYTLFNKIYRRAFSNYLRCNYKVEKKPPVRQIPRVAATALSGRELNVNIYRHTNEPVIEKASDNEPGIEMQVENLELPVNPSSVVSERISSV

[5] = target: 5-hydroxytryptamine receptor 5A (Homo sapiens, UniProt P47898); assay: Binding affinity to 5-HT5AR (unknown origin) assessed as inhibition constant
[6] = target: 5-hydroxytryptamine receptor 2B (Homo sapiens, UniProt P41595); assay: Binding affinity to 5-HT2BR (unknown origin) assessed as inhibition constant
[7] = target: Glutamate receptor ionotropic, NMDA 2B (Homo sapiens, UniProt Q05586+Q13224); assay: Inhibition of NMDA receptor NR2B subunit (unknown origin)
Cholinesterase = Cholinesterase (Homo sapiens, UniProt P06276); assay: Inhibition of BuChE (unknown origin)
Acetylcholinesterase [8] = target: T1, Acetylcholinesterase; assay: Inhibition of AChE (unknown origin)
[9] = target: Dual specificity tyrosine-phosphorylation-regulated kinase 1A (Homo sapiens, UniProt Q13627); assay: Inhibition of DYRK1A (unknown origin)
[10] = target: T3, Amine oxidase [flavin-containing] A (Homo sapiens, UniProt P21397); assay: Inhibition of MAO-A (unknown origin)
T3 sequence (P21397 whole entry): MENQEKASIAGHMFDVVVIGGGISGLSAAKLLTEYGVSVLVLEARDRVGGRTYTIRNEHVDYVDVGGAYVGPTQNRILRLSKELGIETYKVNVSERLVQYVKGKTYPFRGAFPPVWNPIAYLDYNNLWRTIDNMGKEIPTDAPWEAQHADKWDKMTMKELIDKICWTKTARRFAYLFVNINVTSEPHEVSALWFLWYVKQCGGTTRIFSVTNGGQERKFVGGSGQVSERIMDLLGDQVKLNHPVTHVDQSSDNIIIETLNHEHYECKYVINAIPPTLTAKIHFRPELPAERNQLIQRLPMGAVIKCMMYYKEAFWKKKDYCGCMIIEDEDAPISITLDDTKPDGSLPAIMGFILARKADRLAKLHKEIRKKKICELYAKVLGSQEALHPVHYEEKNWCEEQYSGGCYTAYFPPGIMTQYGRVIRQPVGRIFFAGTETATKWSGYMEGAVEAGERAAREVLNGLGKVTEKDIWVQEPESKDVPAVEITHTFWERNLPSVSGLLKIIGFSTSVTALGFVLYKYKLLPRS

[11] = target: GABA-A receptor; anion channel; assay: Displacement of [3H]flunitrazepam from GABAA (unknown origin ) receptor by radioligand binding assay; type: protein-complex assay, Homo sapiens
[12] = target: T4, Gamma-aminobutyric acid receptor subunit alpha-1 (Homo sapiens, UniProt P14867); assay: Binding affinity to human recombinant GABAA alpha1 receptor assessed as inhibition constant incubated for 1 hrs by liquid scintillation counting analysis
T4 sequence (P14867 whole entry): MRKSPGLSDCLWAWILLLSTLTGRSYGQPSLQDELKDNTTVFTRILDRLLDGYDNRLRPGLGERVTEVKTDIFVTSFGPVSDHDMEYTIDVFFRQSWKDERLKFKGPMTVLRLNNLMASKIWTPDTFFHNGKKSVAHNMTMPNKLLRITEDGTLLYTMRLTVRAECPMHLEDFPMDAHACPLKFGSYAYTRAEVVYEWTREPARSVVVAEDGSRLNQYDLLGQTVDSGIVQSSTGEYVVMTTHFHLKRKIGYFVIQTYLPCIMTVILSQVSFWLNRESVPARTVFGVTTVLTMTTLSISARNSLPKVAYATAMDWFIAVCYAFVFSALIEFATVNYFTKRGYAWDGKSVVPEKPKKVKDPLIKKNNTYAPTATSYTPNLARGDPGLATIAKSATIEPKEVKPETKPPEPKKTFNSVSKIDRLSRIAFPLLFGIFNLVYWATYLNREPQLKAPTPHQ

[13] = target: T5, Gamma-aminobutyric acid receptor subunit alpha-2 (Homo sapiens, UniProt P47869); assay: Binding affinity to human recombinant GABAA alpha2 receptor assessed as inhibition constant incubated for 1 hrs by liquid scintillation counting analysis
T5 sequence (P47869 whole entry): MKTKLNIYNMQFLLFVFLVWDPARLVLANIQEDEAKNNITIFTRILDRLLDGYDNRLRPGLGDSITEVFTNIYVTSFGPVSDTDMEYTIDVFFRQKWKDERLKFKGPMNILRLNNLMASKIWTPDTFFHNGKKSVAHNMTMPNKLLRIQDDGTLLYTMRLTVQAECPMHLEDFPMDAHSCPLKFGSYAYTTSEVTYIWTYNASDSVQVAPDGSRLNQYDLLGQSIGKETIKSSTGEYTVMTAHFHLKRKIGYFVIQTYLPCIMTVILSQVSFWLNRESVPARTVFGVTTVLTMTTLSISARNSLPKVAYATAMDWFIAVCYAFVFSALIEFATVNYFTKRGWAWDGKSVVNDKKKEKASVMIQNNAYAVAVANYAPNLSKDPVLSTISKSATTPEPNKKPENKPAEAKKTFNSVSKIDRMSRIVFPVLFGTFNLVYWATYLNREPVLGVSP

[14] = target: T6, Gamma-aminobutyric acid receptor subunit alpha-3 (Homo sapiens, UniProt P34903); assay: Binding affinity to human recombinant GABAA alpha3 receptor assessed as inhibition constant incubated for 1 hrs by liquid scintillation counting analysis
T6 sequence (P34903 whole entry): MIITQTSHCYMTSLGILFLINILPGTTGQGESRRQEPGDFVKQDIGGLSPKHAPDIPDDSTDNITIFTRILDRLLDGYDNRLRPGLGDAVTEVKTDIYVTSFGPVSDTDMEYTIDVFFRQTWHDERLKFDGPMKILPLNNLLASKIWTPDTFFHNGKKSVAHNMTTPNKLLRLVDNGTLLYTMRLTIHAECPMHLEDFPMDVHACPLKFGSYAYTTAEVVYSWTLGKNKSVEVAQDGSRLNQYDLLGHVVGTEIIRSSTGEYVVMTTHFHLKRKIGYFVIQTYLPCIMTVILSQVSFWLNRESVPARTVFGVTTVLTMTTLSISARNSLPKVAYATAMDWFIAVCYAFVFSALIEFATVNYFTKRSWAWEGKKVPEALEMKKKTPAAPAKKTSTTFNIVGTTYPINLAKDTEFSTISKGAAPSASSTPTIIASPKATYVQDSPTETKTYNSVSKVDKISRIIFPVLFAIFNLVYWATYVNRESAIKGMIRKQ

[15] = target: Gamma-aminobutyric acid receptor subunit alpha-4 (Homo sapiens, UniProt P48169); assay: Binding affinity to human recombinant GABAA alpha4 receptor assessed as inhibition constant incubated for 1 hrs by liquid scintillation counting analysis
[16] = target: T7, Gamma-aminobutyric acid receptor subunit alpha-5 (Homo sapiens, UniProt P31644); assay: Binding affinity to human recombinant GABAA alpha5 receptor assessed as inhibition constant incubated for 1 hrs by liquid scintillation counting analysis
T7 sequence (P31644 whole entry): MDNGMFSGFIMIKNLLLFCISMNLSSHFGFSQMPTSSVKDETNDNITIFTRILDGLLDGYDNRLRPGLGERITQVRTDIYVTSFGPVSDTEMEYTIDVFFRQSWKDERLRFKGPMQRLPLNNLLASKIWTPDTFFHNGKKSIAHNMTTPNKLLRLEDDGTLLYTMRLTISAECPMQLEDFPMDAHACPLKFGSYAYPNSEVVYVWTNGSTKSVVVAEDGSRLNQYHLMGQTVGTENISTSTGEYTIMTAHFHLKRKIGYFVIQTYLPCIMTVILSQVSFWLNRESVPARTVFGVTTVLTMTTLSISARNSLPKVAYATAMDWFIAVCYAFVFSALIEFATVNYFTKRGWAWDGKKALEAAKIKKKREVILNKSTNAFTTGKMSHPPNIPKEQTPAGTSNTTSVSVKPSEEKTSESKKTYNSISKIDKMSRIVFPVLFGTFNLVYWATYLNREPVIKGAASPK

[17] = target: Gamma-aminobutyric acid receptor subunit alpha-6 (Homo sapiens, UniProt Q16445); assay: Binding affinity to human recombinant GABAA alpha6 receptor assessed as inhibition constant incubated for 1 hrs by liquid scintillation counting analysis
Chain of Gamma-aminobutyric acid receptor subunit alpha-6 (Q16445 whole entry): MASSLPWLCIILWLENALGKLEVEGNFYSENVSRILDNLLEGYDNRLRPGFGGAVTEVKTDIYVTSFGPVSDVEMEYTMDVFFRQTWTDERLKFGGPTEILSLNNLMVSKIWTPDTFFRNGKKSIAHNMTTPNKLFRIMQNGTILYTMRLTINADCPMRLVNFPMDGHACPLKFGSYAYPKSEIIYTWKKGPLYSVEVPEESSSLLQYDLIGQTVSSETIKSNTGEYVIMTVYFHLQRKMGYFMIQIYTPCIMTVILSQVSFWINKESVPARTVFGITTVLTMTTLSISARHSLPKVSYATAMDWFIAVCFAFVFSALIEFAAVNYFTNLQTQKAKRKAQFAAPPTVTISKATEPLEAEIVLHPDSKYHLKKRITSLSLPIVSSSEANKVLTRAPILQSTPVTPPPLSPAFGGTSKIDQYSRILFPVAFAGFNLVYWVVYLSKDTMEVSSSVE

T1 sequence (P22303 whole entry): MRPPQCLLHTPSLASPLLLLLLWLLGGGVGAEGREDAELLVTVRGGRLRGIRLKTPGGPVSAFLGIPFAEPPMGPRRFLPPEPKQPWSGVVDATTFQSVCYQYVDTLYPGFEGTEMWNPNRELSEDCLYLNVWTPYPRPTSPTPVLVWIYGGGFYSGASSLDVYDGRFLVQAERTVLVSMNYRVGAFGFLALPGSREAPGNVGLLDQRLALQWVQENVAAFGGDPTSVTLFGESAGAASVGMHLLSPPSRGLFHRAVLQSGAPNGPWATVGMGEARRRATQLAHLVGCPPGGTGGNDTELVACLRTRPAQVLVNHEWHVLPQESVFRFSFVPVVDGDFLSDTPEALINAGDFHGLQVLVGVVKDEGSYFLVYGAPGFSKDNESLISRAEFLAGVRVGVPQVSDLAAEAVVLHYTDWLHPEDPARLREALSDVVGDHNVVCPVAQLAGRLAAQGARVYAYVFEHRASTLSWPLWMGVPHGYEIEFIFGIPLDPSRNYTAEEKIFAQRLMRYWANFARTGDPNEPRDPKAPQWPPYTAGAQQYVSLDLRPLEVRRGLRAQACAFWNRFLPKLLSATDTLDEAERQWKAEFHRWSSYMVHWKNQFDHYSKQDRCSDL
Chain of Glutamate receptor ionotropic, NMDA 2B (Q13224 whole entry, one chain of several): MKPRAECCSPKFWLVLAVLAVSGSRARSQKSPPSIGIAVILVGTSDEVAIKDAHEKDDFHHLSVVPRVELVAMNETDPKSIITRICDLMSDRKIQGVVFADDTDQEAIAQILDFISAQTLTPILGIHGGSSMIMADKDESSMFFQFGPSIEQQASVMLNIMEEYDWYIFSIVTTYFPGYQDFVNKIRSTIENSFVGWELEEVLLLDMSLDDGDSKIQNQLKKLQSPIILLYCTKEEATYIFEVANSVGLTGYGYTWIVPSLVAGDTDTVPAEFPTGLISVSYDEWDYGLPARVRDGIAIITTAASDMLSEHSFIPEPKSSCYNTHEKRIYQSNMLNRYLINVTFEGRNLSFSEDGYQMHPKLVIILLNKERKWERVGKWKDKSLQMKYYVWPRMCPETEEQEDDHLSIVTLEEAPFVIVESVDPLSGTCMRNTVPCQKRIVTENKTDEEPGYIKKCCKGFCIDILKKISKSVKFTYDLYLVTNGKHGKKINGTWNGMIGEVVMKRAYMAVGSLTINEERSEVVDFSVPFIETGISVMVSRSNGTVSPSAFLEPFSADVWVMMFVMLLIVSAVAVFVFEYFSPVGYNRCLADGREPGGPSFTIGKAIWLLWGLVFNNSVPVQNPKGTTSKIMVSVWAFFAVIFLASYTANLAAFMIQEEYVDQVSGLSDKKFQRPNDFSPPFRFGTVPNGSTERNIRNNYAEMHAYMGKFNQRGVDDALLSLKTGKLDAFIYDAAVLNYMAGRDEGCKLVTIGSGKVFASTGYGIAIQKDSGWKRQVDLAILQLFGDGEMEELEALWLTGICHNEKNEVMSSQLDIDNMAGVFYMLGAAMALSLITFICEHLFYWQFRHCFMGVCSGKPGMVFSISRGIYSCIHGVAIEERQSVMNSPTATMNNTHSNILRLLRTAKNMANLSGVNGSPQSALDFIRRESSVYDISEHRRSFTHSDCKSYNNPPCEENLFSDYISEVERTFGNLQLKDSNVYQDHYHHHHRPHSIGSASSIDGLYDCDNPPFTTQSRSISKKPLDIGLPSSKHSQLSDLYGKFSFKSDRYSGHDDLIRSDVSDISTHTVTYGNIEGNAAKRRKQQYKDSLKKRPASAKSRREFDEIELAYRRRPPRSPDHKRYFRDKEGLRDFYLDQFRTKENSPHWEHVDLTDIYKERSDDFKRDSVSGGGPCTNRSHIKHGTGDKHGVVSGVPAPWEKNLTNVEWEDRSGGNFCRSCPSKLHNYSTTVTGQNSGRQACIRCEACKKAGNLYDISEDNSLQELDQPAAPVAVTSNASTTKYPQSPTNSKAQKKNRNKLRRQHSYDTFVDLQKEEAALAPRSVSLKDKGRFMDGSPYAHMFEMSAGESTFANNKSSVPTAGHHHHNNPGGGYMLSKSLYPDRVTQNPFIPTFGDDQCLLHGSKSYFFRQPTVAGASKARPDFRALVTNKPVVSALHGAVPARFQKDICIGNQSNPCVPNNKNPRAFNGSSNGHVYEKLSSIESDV
Chain of Cholinesterase (P06276 whole entry): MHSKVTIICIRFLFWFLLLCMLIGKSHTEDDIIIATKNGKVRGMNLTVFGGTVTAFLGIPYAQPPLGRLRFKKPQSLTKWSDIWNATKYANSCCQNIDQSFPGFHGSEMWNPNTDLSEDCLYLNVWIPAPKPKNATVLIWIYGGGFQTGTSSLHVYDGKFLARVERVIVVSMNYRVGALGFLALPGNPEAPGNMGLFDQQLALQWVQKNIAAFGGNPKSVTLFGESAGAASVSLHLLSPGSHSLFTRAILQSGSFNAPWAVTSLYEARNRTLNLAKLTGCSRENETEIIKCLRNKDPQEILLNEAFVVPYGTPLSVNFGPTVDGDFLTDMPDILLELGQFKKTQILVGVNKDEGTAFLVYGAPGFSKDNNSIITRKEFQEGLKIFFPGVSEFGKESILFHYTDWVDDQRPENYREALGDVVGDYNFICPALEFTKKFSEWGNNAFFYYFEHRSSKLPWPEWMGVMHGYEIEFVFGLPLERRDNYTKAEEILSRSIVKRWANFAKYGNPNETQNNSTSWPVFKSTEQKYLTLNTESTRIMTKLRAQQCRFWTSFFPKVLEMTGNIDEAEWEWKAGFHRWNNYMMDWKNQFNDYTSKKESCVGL
Chain of 5-hydroxytryptamine receptor 2B (P41595 whole entry): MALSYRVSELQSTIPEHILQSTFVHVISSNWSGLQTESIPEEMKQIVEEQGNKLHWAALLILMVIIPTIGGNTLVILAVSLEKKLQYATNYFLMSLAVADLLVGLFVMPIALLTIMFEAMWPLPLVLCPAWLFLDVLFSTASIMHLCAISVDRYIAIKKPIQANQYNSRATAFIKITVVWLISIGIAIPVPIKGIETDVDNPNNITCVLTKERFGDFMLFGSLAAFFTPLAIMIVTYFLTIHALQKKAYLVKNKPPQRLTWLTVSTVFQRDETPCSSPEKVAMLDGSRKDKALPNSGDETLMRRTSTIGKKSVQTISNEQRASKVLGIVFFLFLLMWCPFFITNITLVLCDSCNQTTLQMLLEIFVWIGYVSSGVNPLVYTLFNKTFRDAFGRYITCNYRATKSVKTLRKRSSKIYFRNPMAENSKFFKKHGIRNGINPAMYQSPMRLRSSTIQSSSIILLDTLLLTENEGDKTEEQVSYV
Chain of 5-hydroxytryptamine receptor 5A (P47898 whole entry): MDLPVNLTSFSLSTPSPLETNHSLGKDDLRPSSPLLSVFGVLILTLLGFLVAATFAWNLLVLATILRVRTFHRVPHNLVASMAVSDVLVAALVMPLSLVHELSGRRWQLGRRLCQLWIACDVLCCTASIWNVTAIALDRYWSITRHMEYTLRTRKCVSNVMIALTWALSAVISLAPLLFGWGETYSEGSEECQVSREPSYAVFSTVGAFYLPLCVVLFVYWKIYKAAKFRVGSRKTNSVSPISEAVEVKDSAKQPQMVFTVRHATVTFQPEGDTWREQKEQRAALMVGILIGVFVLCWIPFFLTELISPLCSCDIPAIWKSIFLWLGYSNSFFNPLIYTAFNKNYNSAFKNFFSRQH
Chain of Gamma-aminobutyric acid receptor subunit alpha-4 (P48169 whole entry): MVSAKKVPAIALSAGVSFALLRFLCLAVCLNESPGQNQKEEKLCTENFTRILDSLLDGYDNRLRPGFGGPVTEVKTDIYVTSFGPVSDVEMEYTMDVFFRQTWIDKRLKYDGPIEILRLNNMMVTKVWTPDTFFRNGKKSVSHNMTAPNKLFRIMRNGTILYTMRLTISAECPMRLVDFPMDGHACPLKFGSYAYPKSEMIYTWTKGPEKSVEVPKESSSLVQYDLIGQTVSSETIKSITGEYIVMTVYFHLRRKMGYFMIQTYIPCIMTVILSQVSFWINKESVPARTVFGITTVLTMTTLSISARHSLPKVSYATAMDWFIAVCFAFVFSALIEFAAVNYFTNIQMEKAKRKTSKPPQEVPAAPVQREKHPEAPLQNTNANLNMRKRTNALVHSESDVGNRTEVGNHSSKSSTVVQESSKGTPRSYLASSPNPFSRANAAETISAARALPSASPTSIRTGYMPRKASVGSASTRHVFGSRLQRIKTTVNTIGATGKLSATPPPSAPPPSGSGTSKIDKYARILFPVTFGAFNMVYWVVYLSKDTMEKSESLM

O=C(c1ccc(-c2ccc([N+](=O)[O-])cc2)o1)N1CCc2c([nH]c3ccccc23)C1c1ccc2c(c1)OCO2 (centres undefined) was tested, and the Ki [1] was 64 nM.
Cn1c2ccccc2c2cc[n+](-c3ccc(Br)cc3Br)cc21 showed an IC50 (Acetylcholinesterase [2]) of 110 nM and an IC50 (Acetylcholinesterase [3]) of 110 nM.
With COc1cccc2[nH]c3c(c12)CCN=C3C the Ki [4] was 65 nM.
Nc1cccc(-c2ccc(C(=O)N3CCc4c([nH]c5ccccc45)C3c3ccc4c(c3)OCO4)o2)c1 (centres undefined) showed a Ki [1] of 51 nM.
c1ccc(-c2nccc3c2[nH]c2ccccc23)cc1 gave a Ki [5] of 1400 nM and a Ki [6] of 1400 nM.
For Oc1ccc(CCCN2CCc3c([nH]c4ccccc34)C2)cc1, the IC50 [7] was 87 nM.
In the case of C[n+]1ccc2c(c1)[nH]c1ccccc12 [NORMELINONINE F], the IC50 (Cholinesterase) is reported as 800 nM and the IC50 (Acetylcholinesterase [2]) is reported as 4100 nM.
COc1ccc(-c2cnc(N3CC(=O)c4c([nH]c5ccccc45)C3c3ccc4c(c3)OCO4)nc2)cc1OC (centres undefined) showed a Ki [1] of 9 nM.
Work on c1ccc(C[C@@H]2NCCc3c2[nH]c2ccccc32)cc1 yielded an IC50 [7] of 27000 nM.
For Cc1nccc2c1[nH]c1ccccc12 [HARMAN], the IC50 (Acetylcholinesterase [8]) was greater than 10000 nM, the IC50 (Cholinesterase) was greater than 10000 nM and the IC50 [9] was greater than 1800 nM. It also gave an IC50 [10] of 29 nM and an IC50 [11] of 2500 nM.
CCOC(=O)[n+]1ccc2c([nH]c3cc(OC)ccc32)c1C gave an IC50 (Acetylcholinesterase [8]) of 250 nM, an IC50 (Cholinesterase) of 1500 nM and an IC50 (Acetylcholinesterase [2]) of 250 nM.
For CC(C)(C)OC(=O)c1cc2c(cn1)[nH]c1ccccc12, the IC50 [11] was 1 nM, the Ki [12] was 0.7 nM and the Ki [13] was 15 nM. It also gave a Ki [14] of 19 nM, a Ki [15] of 1000 nM and a Ki [16] of 110 nM. It also gave a Ki [17] greater than 5000 nM.
For c1ccc2c(-c3nccc4c3[nH]c3ccccc34)c[nH]c2c1, the Ki [5] was 170 nM, the Ki [4] was 170 nM and the Ki [6] was 170 nM.
Work on Oc1ccc2c3c([nH]c2c1)CN(CCCCc1ccccc1)CC3 yielded an IC50 [7] of 50 nM.
Cc1ccc2c(c1)c1cc[n+](-c3ccccc3)cc1n2C gave an IC50 (Acetylcholinesterase [8]) of 420 nM, an IC50 (Cholinesterase) of 17000 nM and an IC50 (Acetylcholinesterase [2]) of 420 nM.
